Molecular target: T1, zfP2X4 (ΔP2X4-C) T189S mutant (Danio rerio, UniProt F8W463, N187R/N78K/T189S)
T1 construct: EGFP (N); octa-histidine tag (N); made in house; host or cells: Sf9 insect cells
T1 sequence (F8W463 28-365 N78K/N187R/T189S limits assumed): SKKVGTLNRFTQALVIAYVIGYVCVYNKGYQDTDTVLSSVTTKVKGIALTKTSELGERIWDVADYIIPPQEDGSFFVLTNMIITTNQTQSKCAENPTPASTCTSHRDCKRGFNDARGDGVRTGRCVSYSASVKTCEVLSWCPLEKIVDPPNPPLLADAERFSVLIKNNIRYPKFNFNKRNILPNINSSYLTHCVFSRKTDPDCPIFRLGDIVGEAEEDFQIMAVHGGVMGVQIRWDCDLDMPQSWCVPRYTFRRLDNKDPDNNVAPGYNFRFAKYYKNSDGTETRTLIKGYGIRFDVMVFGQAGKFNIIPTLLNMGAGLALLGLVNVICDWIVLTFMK
Assay: ATR-FTIR difference spectroscopy, residual nucleotide after washing, zfP2X4 T189S
Assay type: binding, zebrafish
Conditions: 10 μM nucleotide, after 15–30 min washing, P-O stretching bands 1250–800 cm−1
Text: To further investigate the nucleotide binding specificity of zfP2X4, we applied ligand-binding induced difference Attenuated total reflectance (ATR)-Fourier-transform infrared (FTIR) spectroscopy on the WT and conserved threonine mutants (T189S and T189V) of zfP2X4.
Figure 5 ATR-FTIR spectroscopic analysis of zfP2X4 for the ATP and CTP bindings. (A) The reduction of the ligand binding induced difference spectra in the ΔP2X4-C ^zfWT, ^zfT189S and ^zfT189V mutants around the P-O stretching region (1250–800 cm^−1) after washing treatment for 15–30 min. (B) The residual nucleotides after the washing treatment estimated from the ATR-FTIR analysis in (A).
The nucleotide binding affinity of zfP2X4 was analyzed by reduction of the band intensity after washing treatment (Fig. 5). The reduction of the P-O stretching bands between 1250–800 cm^−1 was monitored for ATP (Fig. 5A). […]
The perfusion-induced difference FTIR spectroscopy was performed as similarly to the previous studies. […] ATR-FTIR spectra of the samples were recorded at 25 °C and 2 cm^−1 resolution using a VERTEX 70 spectrometer (Bruker Optics) equipped with a liquid-nitrogen-cooled MCT detector. […] The obtained difference spectra were normalized based on the absolute absorbance of the amide I band at 1653 cm^−1, which well correlates with the quantities of the proteins on the ATR crystals. […]

SMILES	residual nucleotide binding after washing
Nc1ncnc2c1ncn2[C@@H]1O[C@H](COP(=O)(O)OP(=O)(O)OP(=O)(O)O)[C@@H](O)[C@H]1O [ATP, Adenosine 5-triphosphate]	~ 60%
Nc1ccn([C@@H]2O[C@H](COP(=O)(O)OP(=O)(O)OP(=O)(O)O)[C@@H](O)[C@H]2O)c(=O)n1 [CTP]	~ 30%

From paper PMC5362899, “Structural insights into the nucleotide base specificity of P2X receptors” (Scientific Reports, 2017)
